From US11306101B2 (Celgene Corporation, priority 2019, dated 2022)

Biological target: T1, CK1α (Homo sapiens, UniProt P48729+Q96SW2)
T1 construct: expressed in transfected cells
Experiment: CK1α ePL degradation assay in MDS-L cells
Format: cell-based
Details: MDS-L cells expressing ePL-tagged CK1α; for DC50: concentration giving 50% CK1α degradation vs DMSO control; for Y: lowest measured CK1α level normalized to DMSO control
Outline: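 Degradation efficiency is reported as Y value, the minimum CK1α level (percent of DMSO control) across doses. Readout used InCELL Hunter luminescent detection after MDS-L cell exposure at 37° C for stated times, doses 10 μM down to 0.0005 μM in 3-fold steps.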

T1 sequence (P48729 whole entry): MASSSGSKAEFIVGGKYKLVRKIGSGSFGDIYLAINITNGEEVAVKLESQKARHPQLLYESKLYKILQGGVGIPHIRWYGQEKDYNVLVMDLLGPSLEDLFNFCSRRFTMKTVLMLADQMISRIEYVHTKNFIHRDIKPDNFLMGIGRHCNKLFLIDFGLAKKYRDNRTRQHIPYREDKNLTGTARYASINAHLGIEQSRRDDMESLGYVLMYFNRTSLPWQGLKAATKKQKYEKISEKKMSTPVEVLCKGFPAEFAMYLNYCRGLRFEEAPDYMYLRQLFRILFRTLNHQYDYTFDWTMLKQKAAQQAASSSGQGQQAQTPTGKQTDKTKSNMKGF
T1 sequence (Q96SW2 whole entry): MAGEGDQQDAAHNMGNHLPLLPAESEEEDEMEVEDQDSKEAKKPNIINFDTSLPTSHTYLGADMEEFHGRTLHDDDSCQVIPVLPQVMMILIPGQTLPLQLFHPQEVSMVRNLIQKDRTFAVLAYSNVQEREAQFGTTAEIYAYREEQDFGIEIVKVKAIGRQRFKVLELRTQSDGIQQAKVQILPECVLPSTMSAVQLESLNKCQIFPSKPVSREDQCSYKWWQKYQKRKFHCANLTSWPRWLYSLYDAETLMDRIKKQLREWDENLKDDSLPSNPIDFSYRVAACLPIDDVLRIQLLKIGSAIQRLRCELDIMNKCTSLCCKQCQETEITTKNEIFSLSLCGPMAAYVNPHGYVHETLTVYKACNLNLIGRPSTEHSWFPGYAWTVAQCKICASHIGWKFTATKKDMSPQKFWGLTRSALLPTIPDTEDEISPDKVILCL
T1 sequence (Q16531 whole entry partner): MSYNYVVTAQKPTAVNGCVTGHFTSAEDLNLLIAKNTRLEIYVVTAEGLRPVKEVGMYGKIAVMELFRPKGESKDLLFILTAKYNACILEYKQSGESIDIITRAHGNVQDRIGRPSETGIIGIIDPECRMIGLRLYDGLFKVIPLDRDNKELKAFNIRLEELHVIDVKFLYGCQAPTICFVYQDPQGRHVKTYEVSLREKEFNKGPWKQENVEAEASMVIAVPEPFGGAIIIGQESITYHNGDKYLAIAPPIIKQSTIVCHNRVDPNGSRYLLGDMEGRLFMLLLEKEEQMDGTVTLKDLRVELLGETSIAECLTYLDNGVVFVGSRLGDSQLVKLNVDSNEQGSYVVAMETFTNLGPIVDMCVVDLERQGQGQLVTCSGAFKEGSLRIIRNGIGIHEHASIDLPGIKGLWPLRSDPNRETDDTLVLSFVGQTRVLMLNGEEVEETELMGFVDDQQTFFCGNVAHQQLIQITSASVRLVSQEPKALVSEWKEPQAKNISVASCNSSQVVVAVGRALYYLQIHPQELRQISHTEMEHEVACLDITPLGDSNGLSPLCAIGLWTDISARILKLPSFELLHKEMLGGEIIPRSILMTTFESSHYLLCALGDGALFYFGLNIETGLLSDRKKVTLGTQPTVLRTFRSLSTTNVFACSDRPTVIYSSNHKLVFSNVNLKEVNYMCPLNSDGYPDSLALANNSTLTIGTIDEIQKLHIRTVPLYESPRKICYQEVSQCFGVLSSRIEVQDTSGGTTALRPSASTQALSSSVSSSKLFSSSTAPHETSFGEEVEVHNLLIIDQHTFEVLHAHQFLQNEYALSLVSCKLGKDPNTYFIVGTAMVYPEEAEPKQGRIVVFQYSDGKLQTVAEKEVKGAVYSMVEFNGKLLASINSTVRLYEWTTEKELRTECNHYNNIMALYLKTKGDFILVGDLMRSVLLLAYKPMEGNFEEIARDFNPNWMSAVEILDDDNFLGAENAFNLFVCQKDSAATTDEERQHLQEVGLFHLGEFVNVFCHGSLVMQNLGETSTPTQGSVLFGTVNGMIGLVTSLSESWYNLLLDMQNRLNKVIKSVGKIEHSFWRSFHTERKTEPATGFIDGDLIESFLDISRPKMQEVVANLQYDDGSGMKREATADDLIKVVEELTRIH

Row | DC50 | Y | Compound
1 | < 100 nM | * (a Y value (shown as *) of 0<Y≤20%) | O=C1CCC(N2Cc3c(ccc(C(=O)N[C@H](c4ccc(F)cc4)C(F)(F)F)c3F)C2=O)C(=O)N1 (stereo partly drawn) [Example 96, 2-(2,6-dioxopiperidin-3-yl)-4-fluoro-1-oxo-N-((R)-2,2,2-trifluoro-1-(4-fluorophenyl)ethyl)isoindoline-5-carboxamide]
2 | < 100 nM | ** (a Y value (shown as**) of 20%<Y≤35%) | O=C1CCC(N2Cc3c(ccc(C(=O)N[C@H](c4ccccc4)C(F)(F)F)c3F)C2=O)C(=O)N1 (stereo partly drawn) [Example 89, 2-(2,6-dioxopiperidin-3-yl)-4-fluoro-1-oxo-N-((R)-2,2,2-trifluoro-1-phenylethyl)isoindoline-5-carboxamide]
3 | < 100 nM | * (a Y value (shown as *) of 0<Y≤20%) | C[C@H](NC(=O)c1ccc2c(c1)CN(C1CCC(=O)NC1=O)C2=O)c1ccc(F)cc1F (stereo partly drawn) [Example 51, N-((S)-1-(2,4-difluorophenyl)ethyl)-2-(2,6-dioxopiperidin-3-yl)-1-oxoisoindoline-5-carboxamide]
4 | < 100 nM | * (a Y value (shown as *) of 0<Y≤20%) | O=C1CC[C@H](N2Cc3cc(C(=O)N[C@H](c4ccc(F)cc4)C(F)(F)F)ccc3C2=O)C(=O)N1 [Example 103, 2-((S)-2,6-dioxopiperidin-3-yl)-1-oxo-N-((R)-2,2,2-trifluoro-1-(4-fluorophenyl)ethyl)isoindoline-5-carboxamide]
5 | < 100 nM | * (a Y value (shown as *) of 0<Y≤20%) | O=C1CCC(N2Cc3c(ccc(C(=O)N[C@H](c4ccccc4Cl)C(F)(F)F)c3F)C2=O)C(=O)N1 (stereo partly drawn) [Example 114, N-((R)-1-(2-chlorophenyl)-2,2,2-trifluoroethyl)-2-(2,6-dioxopiperidin-3-yl)-4-fluoro-1-oxoisoindoline-5-carboxamide]
6 | < 100 nM | ** (a Y value (shown as**) of 20%<Y≤35%) | COc1ccc([C@H](C)NC(=O)c2ccc3c(c2)CN(C2CCC(=O)NC2=O)C3=O)cc1 (stereo partly shown) [Example 12]
7 | 100 to 500 nM | ** (a Y value (shown as**) of 20%<Y≤35%) | O=C1CCC(N2Cc3c(ccc(C(=O)N[C@H](c4ncccc4F)C(F)(F)F)c3F)C2=O)C(=O)N1 (stereo partly drawn) [Example 117, 2-(2,6-dioxopiperidin-3-yl)-4-fluoro-1-oxo-N-((R)-2,2,2-trifluoro-1-(3-fluoropyridin-2-yl)ethyl)isoindoline-5-carboxamide]
8 | < 100 nM | * (a Y value (shown as *) of 0<Y≤20%) | COc1ccccc1[C@@H](NC(=O)c1ccc2c(c1)CN(C1CCC(=O)NC1=O)C2=O)C(F)(F)F (stereo partly drawn) [Example 38, 2-(2,6-dioxopiperidin-3-yl)-1-oxo-N-((R)-2,2,2-trifluoro-1-(2-methoxyphenyl)ethyl)isoindoline-5-carboxamide]
9 | < 100 nM | * (a Y value (shown as *) of 0<Y≤20%) | O=C1CCC(N2Cc3c(ccc(C(=O)N[C@H](c4ccc(F)cc4)C(F)F)c3F)C2=O)C(=O)N1 (stereo partly drawn) [Example 112, N-((R)-2,2-difluoro-1-(4-fluorophenyl)ethyl)-2-(2,6-dioxopiperidin-3-yl)-4-fluoro-1-oxoisoindoline-5-carboxamide]
10 | 100 to 500 nM | * (a Y value (shown as *) of 0<Y≤20%) | CC1(C)CCC([C@@H](NC(=O)c2ccc3c(c2)CN(C2CCC(=O)NC2=O)C3=O)C(F)(F)F)CC1 (stereo partly drawn) [Example 46, N-((R)-1-(4,4-dimethylcyclohexyl)-2,2,2-trifluoroethyl)-2-(2,6-dioxopiperidin-3-yl)-1-oxoisoindoline-5-carboxamide]
11 | < 100 nM | * (a Y value (shown as *) of 0<Y≤20%) | O=C1CC[C@H](N2Cc3cc(C(=O)N[C@H](c4ncc(Cl)cc4F)C(F)(F)F)ccc3C2=O)C(=O)N1 [Example 193, N-((R)-1-(5-chloro-3-fluoropyridin-2-yl)-2,2,2-trifluoroethyl)-2-((S)-2,6-dioxopiperidin-3-yl)-1-oxoisoindoline-5-carboxamide]
12 | < 100 nM | ** (a Y value (shown as**) of 20%<Y≤35%) | O=C1CCC(N2Cc3cc(C(=O)N[C@H](c4ccc(Cl)cc4)C(F)(F)F)c(F)cc3C2=O)C(=O)N1 (stereo partly drawn) [Example 91, N-((R)-1-(4-chlorophenyl)-2,2,2-trifluoroethyl)-2-(2,6-dioxopiperidin-3-yl)-6-fluoro-1-oxoisoindoline-5-carboxamide]
13 | < 100 nM | ** (a Y value (shown as**) of 20%<Y≤35%) | O=C1CCC(N2Cc3cc(C(=O)N[C@H](c4cc(C(F)(F)F)ccn4)C(F)(F)F)ccc3C2=O)C(=O)N1 (stereo partly drawn) [Example 119, 2-(2,6-dioxopiperidin-3-yl)-1-oxo-N-((R)-2,2,2-trifluoro-1-(4-(trifluoromethyl)pyridin-2-yl)ethyl)isoindoline-5-carboxamide]
14 | < 100 nM | * (a Y value (shown as *) of 0<Y≤20%) | O=C1CCC(N2Cc3cc(C(=O)N[C@H](c4ccc(O)cc4)C(F)(F)F)ccc3C2=O)C(=O)N1 (stereo partly drawn) [Example 101, 2-(2,6-dioxopiperidin-3-yl)-1-oxo-N-((R)-2,2,2-trifluoro-1-(4-hydroxyphenyl)ethyl)isoindoline-5-carboxamide]
15 | < 100 nM | * (a Y value (shown as *) of 0<Y≤20%) | O=C1CCC(N2Cc3cc(C(=O)N[C@H](c4ccc(C(F)(F)F)cc4)C(F)(F)F)ccc3C2=O)C(=O)N1 (stereo partly drawn) [Example 40, 2-(2,6-dioxopiperidin-3-yl)-1-oxo-N-((R)-2,2,2-trifluoro-1-(4-(trifluoromethyl)phenyl)ethyl)isoindoline-5-carboxamide]
16 | 100 to 500 nM | ** (a Y value (shown as**) of 20%<Y≤35%) | CC(C)NC(=O)c1ccc2c(c1)CN(C1CCC(=O)NC1=O)C2=O (stereo not shown) [Example 2]
17 | 500 to 1000 nM | ** (a Y value (shown as**) of 20%<Y≤35%) | C[C@H](NC(=O)c1ccc2c(c1)CN(C1CCC(=O)NC1=O)C2=O)C(C)(C)C (stereo partly shown) [Example 30]
